Results as given in patent publication US4643734A, “Lactide/caprolactone polymer, method of making the same, composites thereof, and prostheses produced therefrom” (Hexcel Corporation, priority 1983, dated 1987).

Assays:
Assay type in all cases: cell-based
[1] = tested on: Salmonella typhimurium TA 1537; experiment: Ames plate incorporation assay, TA1537
Experimental: (§1) A Salmonella/mammalian mutagenicity test was performed to determine if a saline extract of the polymer would cause mutagenic changes in histidine dependent mutant strains of Salmonella typhimurium. The method of Ames et al as reported in Methods for Detecting Carcinogens and Mutagens with the Salmonella/Mammalian Mutagenicity Test (1975) was employed.
(§2) Test sample--a polymer, saline (0.85%) extract was prepared by adding 4 grams of sample to 20 ml of saline and autoclaving at 121° C. for one hour.
(§3) Bacterial test strains--four strains of specially constructed histidine mutants of Salmonella typhimurium, TA 98, TA 100, TA 1535 and TA 1537, developed by Dr. B. Ames, University of California, Berkeley were employed.
(§4) Activation system--S-9 Activation Mix is composed mainly of the microsomal fraction from a rat liver homogenate. The S-9 mix was used for the detection of mutagenic properties that require metabolic biotransformation to their active mutagenic form. […]
(§5) Ames plate incorporation assay--the principle technique of the Ames test consists of a plate incorporation assay from which direct revertant colony counts are obtained from the test plates. […] Following a 48 hour incubation period at 30° C., the number of colonies in each test plate are recorded as revertant colonies for comparison with spontaneous revertant rates for each strain.

[2] = tested on: Salmonella typhimurium TA 100; experiment: Ames plate incorporation assay, TA100
Experimental: as §1, §2, §3
Activation system--S-9 Activation Mix is composed mainly of the microsomal fraction from a rat liver homogenate. The S-9 mix was used for the detection of mutagenic properties that require metabolic biotransformation to their active mutagenic form. S-9 mix employed was Aroclor 1254--induced(Litton Bionetics, Inc., Kensington, Md., Lot #REL 091).
Negative controls--the solvent elution vehicle was test with each bacterial strain to determine the number of spontaneous revertant colonies for each test population.
MDA requires metabolic activation to induce mutagenic results; therefore, it was tested (on strain TA 100 only) with and without S-9 mix to verify the bioactivation properties of the S-9 rat liver preparation.
Ames plate incorporation assay--the principle technique of the Ames test consists of a plate incorporation assay from which direct revertant colony counts are obtained from the test plates. Minimal nutrient agar plates are seeded with both a tester strain population and the test solution suspended together in a semi-solid overlay. Test plates are prepared providing for either the presence or absence of S-9 activation mix supplemented in the overlay. Following a 48 hour incubation period at 30° C., the number of colonies in each test plate are recorded as revertant colonies for comparison with spontaneous revertant rates for each strain.

[3] = tested on: Salmonella typhimurium TA 98; experiment: Ames plate incorporation assay, TA98
Experimental: as §1, §2, §3, §4, §5

[4] = tested on: Salmonella typhimurium TA 1535; experiment: Ames plate incorporation assay, TA1535
Experimental: as §1, §2, §3, §4, §5

SMILES	Number of Revertant Colonies (Average of Duplicate Plates) ([1]; TA1537, w/S-9)	Number of Revertant Colonies (Average of Duplicate Plates) ([1]; TA1537, without S-9)	Number of Revertant Colonies (Average of Duplicate Plates) ([2]; TA100, w/S-9)	Number of Revertant Colonies (Average of Duplicate Plates) ([2]; TA100, without S-9)	Number of Revertant Colonies (Average of Duplicate Plates) ([3]; TA98, w/S-9)	Number of Revertant Colonies (Average of Duplicate Plates) ([3]; TA98, without S-9)	Number of Revertant Colonies (Average of Duplicate Plates) ([4]; TA1535, w/S-9)	Number of Revertant Colonies (Average of Duplicate Plates) ([4]; TA1535, without S-9)
CN(C)c1ccc(N=NS(=O)(=O)[O-])cc1.[Na+] [Dexon]	230.0	216.0	388.5	377.0	430.0	422.0	26.5	28.0
Nc1ccc(Cc2ccc(N)cc2)cc1 [MDA, methylene dianiline]	–	–	223.0	73.0	–	–	–	–
